These results are taken from BindingDB's records for doi:10.7270/Q2BG2MFK (Nmmlsc, 2010).

As usually defined, the EC50 is the concentration giving half of the maximal effect. A higher EC50 goes with lower potency in that assay.

In one assay the target is T1, Regulator of G-protein signaling 19 (Homo sapiens, UniProt P49795).
T1 sequence (P49795 whole entry): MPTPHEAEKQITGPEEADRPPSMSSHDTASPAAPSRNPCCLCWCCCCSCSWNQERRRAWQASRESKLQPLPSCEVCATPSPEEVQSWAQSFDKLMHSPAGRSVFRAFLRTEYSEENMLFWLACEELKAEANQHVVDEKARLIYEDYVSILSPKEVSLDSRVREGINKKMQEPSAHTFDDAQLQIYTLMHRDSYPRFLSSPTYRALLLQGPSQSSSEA
The assay is described as follows: RGS19-Galphao binding modulators, analog potency, SAR follow-up, biochemical, SAR compounds, multiplexed bead flow cytometry (AID 2311).
Conditions: not given
On the technique in general: A flow cytometer gives signals particle by particle.
For the molecule `COc1ccc(C2=CC(=O)C=CC2=O)cc1` [MLS001029846], a half-maximal response (EC50) required 0.169 µM.
For the molecule `Cc1cc(Cl)ccc1/N=c1/ssnc1Cl` [MLS000539990], the midpoint of the response, the EC50, lay at 0.115 µM.
`O=C(NCCCN1CCOCC1)c1sc2cc([N+](=O)[O-])ccc2c1Cl` [3-chloranyl-N-(3-morpholin-4-ylpropyl)-6-nitro-1-benzothiophene-2-carboxamide] gave an EC50 of 0.488 µM.
Same read-out and setting: in the case of `CCC(=O)NC(c1ccc(C)cc1)c1cc([N+](=O)[O-])c2cccnc2c1O` (stereo unspecified) [MLS000553854] it was 1.24 µM.
On the same count and under the same terms, for `NS(=O)(=O)c1ccc(N=NCc2ccc(O)c(O)c2O)c([N+](=O)[O-])c1` [4-[[(E)-(2,3-dihydroxy-4-oxo-1-cyclohexa-2,5-dienylidene)methyl]hydrazo]-3-nitrobenzenesulfonamide] the value was 0.109 µM; for `O=C(Cc1csc(N2CCOCC2)n1)NN=Cc1ccc(O)c(O)c1O` [SMR000369439], 0.794 µM; for `O=c1c2ccccc2sn1-c1ccc(S(=O)(=O)N2CCCC2)cc1` [2-(4-pyrrolidin-1-ylsulfonylphenyl)-1,2-benzothiazol-3-one], greater than 30 µM.
Still for that read-out and setting: for `CC(=O)OCCCNc1cc(Sc2nc3ccccc3s2)c2nonc2c1[N+](=O)[O-]` [MLS000521052] the value was 0.016 µM; for `O=C1C(Cl)=C(N2CCCCC2)C(=O)C(Cl)=C1c1cnc(N2CCCCC2)s1` [MLS000550549], 0.082 µM; for `Cc1cccc(N2CCN(C(=O)Cn3sc4nc(C)cc(C)c4c3=O)CC2C)c1` (stereo unspecified) [2-[2-keto-2-[3-methyl-4-(m-tolyl)piperazino]ethyl]-4,6-dimethyl-isothiazolo[5,4-b]pyridin-3-one], 0.1 µM.
Turning to `CN1CCN(C2=C(Cl)C(=O)C(c3cnc(N4CCCCC4)s3)=C(Cl)C2=O)CC1`, the concentration for a half-maximal effect (EC50) worked out at 0.027 µM.
For `CC(NC(=O)c1sc2cc([N+](=O)[O-])ccc2c1Cl)C(C)(C)C` (stereo unspecified) [3-chloranyl-N-(3,3-dimethylbutan-2-yl)-6-nitro-1-benzothiophene-2-carboxamide], the EC50 is greater than 30 µM.
Still for that read-out and setting: for `CCOC(=O)c1sc(NC(=O)CSc2nnc(Cc3ccccc3)o2)c(C#N)c1C` [4-cyano-3-methyl-5-[[1-oxo-2-[[5-(phenylmethyl)-1,3,4-oxadiazol-2-yl]thio]ethyl]amino]-2-thiophenecarboxylic acid ethyl ester] the value was 0.155 µM.
Turning to `O=c1c2ccccc2sn1-c1ccccc1` [2-phenyl-1,2-benzothiazol-3-one], the EC50 is greater than 30 µM.
Still for that read-out and setting: for `Nc1c(C(=O)NCC2CCCO2)sc2nc3c(c(-c4ccco4)c12)CC/C3=C/c1ccco1` (stereo unspecified) [UNM-0000305796] the value was greater than 30 µM.
Still for that read-out and setting: for `Cc1[nH]n(-c2ccccc2)c(=S)c1C=NCCCN=Cc1c(C)[nH]n(-c2ccccc2)c1=S` the value was 0.056 µM; for `Cc1[nH]n(-c2ccccc2)c(=S)c1/C=N/c1cccc([N+](=O)[O-])c1` [(4E)-5-methyl-4-[(3-nitroanilino)methylene]-2-phenyl-2-pyrazoline-3-thione], greater than 30 µM.
The molecule `O=C(COc1ccccc1C(=O)NN=Cc1ccc(O)c(O)c1)NN=Cc1ccc(O)c(O)c1` [N''-[(Z)-(3-hydroxy-4-oxo-1-cyclohexa-2,5-dienylidene)methyl]-2-[2-[[(Z)-(3-hydroxy-4-oxo-1-cyclohexa-2,5-dienylidene)methyl]hydrazo]-2-oxoethoxy]benzohydrazide] displayed a half-maximal effective concentration (EC50) greater than 30 µM.
The same measure, in the same setting: for `CCN(CC)S(=O)(=O)c1cccc(C(=O)NN=Cc2ccc(O)c(O)c2O)c1` the value was greater than 30 µM; for `CN=c1scc(C)n1N=Cc1ccc(O)c(O)c1O` [(4E)-2,3-dihydroxy-4-[[(4-methyl-2-methylimino-1,3-thiazol-3-yl)amino]methylidene]cyclohexa-2,5-dien-1-one], 0.209 µM; for `Cc1cccc(N2CCN(C(=O)COc3nsc4nc(C)cc(C)c34)CC2C)c1` (stereo unspecified), 0.59 µM.
Same read-out and setting: in the case of `CCN=c1scc(C)n1N=Cc1ccc(O)c(O)c1O` it was 0.378 µM; in that of `CCN(CC)S(=O)(=O)c1cccc(-c2n[nH]c(=S)n2N=Cc2ccc(C(=O)OC)cc2)c1` [4-[(E)-[3-[3-(diethylsulfamoyl)phenyl]-5-thioxo-1H-1,2,4-triazol-4-yl]iminomethyl]benzoic acid methyl ester], greater than 30 µM; in that of `COC(=O)CCC(=O)Nc1sc(C)c(C)c1C(N)=O` [4-[(3-carbamoyl-4,5-dimethyl-2-thienyl)amino]-4-keto-butyric acid methyl ester], greater than 30 µM.
`CC1(C)OC(=O)C(=Cc2ccc(-c3ccc(S(N)(=O)=O)cc3)o2)C(=O)O1` [SMR000273939] registered a concentration for a half-maximal effect (EC50) of 0.245 µM.

Still in this assay, the particulars now being: inactive by the depositor's call.
As for `CCOc1ccccc1-c1c2cc(O)c(=O)cc-2oc2cc(O)c(O)cc12` [MLS000578271], the midpoint of the response, the EC50, lay at 4.69 µM.
